What was measured:
[1] = tested on: 11G2L (creatine transporter mRNA); assay: Northern blot of 11G2L in hypothalamic RNA; format: in vivo, rat
Procedure: Northern Blots were used to confirm the results we obtained from the differential display. Six additional rats from each group (saline, CoPP, and fasted) were used in Northern Blot experiments. Total RNA (15 ug) extracted from the hypothalami of these rats was loaded on 1.3% formaldehyde-agarose gels. After 3.5 hours running at 56V, the gels were transferred to Hybrond-N+ membrane (Amersham, Piscataway, N.J.). The cloning inserts were released from PCR-TRAP Vectors by PCR amplification and then gel-purified with the Wizard®DNA Clean-up System (Promega). The inserts were labeled with [alpha^32P]dCTP (Perkin Elmer) using a random primers DNA labeling kit (Invitrogen, San Diego, Calif.). Labeled probe (25 ng) was denatured and then hybridized with a membrane which had been pre-incubated for 15 min in 15 ml Rapidhyb buffer (Amersham) in a Roller-Blot Hybridizer (Techne HB-3D, Cambridge, UK) for 1 hour. After washing under different stringencies, depending on the probes used, the membranes were exposed overnight to film. The autoradiographs were scanned using a GS-700 imaging densitometer (BioRad, Inc., Hercules, Calif.) and analyzed using Quantity One software (BioRad). A series of primer sets were designed using available sequences for inserts or for related mRNA cds.

[2] = tested on: creatine transporter mRNA; assay: In situ hybridization of creatine transporter mRNA in rat brain; format: in vivo; conditions: 48 hours after icv 0.4 um/kg; arcuate, dorsomedial, ventromedial, third ventricle, paraventricular thalamic, habenular areas; FIG. 6
From the text: At least 3 rats per group were used for each individual probe. Brains were dissected as described above and were cut vertically to remove the anterior portion at the optic chiasm and the posterior portion at the interpeduncular fossa so that the remaining blocks included the whole hypothalamus with a small additional margin of adjacent tissue. The blocks were immediately frozen on foil on dry ice, then stored at −80 degrees C. Blocks were sectioned in a cryostat (Micron HM500O) at −20 degrees C. and at a thickness of 13 microns. The slides were fixed in 4% paraformaldehyde for 5 minutes and acetylated in 1.3% triethanolamine and 0.5% acetic anhydride, pH 8.0 for 5 minutes. […] After air drying, the slides were ready to use.
For preparation of radiolabeled riboprobes, the DNA fragments containing the creatine transporter insert and a T7 or SP6 phage promoter sequence in each side were produced from cloning vectors (pCRII-TOPO, Invitrogene; PCR-TRAP, GenHunter) either by restriction endonuclease digestion or by PCR amplification. […] The cpm value was determined by counting in a liquid scintillation spectrometer. […]
For dipping and developing in situ slides, Kodak NTB-2 emulsion was diluted (1:1) using ddH2O and warmed to 40 degrees C. in a dark room. […] Slides were observed under dark-field microscopy (Olympus, Tokyo, Japan) and silver grains in regions of interest were assessed. […]

## C=Cc1c(C)c2cc3[nH]c(cc4nc(cc5nc(cc1[nH]2)C(C)=C5CCC(=O)[O-])C(CCC(=O)[O-])=C4C)c(C)c3C=C.[Co+2] [CoPP, Cobaltic protoporphyrin IX]
[1]; Northern densitometry normalized to L32, p<0.02
  increase of 11G2L expression compared to vehicle-treated animals (fed or fasted): approximately 20%
[1]; hypothalamus, 48 hours after icv, normalized to L32 mRNA
  Northern Blot Densitometry of 11G2L: 1.023±* arbitrary units
[2]
  CrT mRNA in situ hybridization compared to control: increased
